Measurements reported in patent US9643971B2 (GALLEON PHARMACEUTICALS, INC., priority 2013, dated 2017).
Counter-ions that a name gives are not always drawn.

Tested on: anesthetized rat
Assay: Anesthetized rat spirometry screening assay
Format: in vivo
Conditions: for AUC MV Inc (2 min) (ratio vs. std*): 2 minute AUC of minute volume increase vs. comparator N-[2,6-di-(n-propylamino)-[1,3]pyrimidin-4-yl]-N,O-dimethyl-hydroxylamine; for VE Peak (% Inc.): peak minute ventilation increase, urethane-anesthetized rat, i.v. bolus, screening doses 0.1 and 0.3 mg/kg
Description: Effect of Compounds of the Invention on Respiratory Rate (RR), Tidal Volume (VT), and the Product Minute Volume Using an Anesthetized Rat Spirometry Screening Assay
Anesthetized rats provide a quick method of screening compounds for respiratory and cardiovascular activity. In contrast to the conscious rat model, this model offers an experimental set up with less variation in the baseline cardiovascular and respiratory measures. Compounds screened in this assay may be examined in a conscious rat model.
Rats were initially anesthetized with 3% isoflurane (inhaled) and femoral artery and vein cannulas were surgically inserted. Once cannulated, the rats were transitioned to urethane anesthesia (1.5 g/kg; i.v.) and a tracheal cut-down was performed. After placing the tracheal cannula, it was connected to a pneumotachometer to record respiratory airflow from which respiratory rate (RR), tidal volume (VT), and their product minute volume were derived. After the surgical preparation was complete, animals were allowed to stabilize for 30 minutes while respiratory rate, tidal volume, minute volume, blood pressure and heart rate were recorded continuously. Arterial blood gases (ABG) were obtained from arterial blood collected from the femoral artery. ABG measurements were taken before and 6 minutes after vehicle and each dose of compound administered. Compounds being screened were administered via bolus injections through the venous cannula followed by a saline flush (total time of administration is approximately 30 seconds), and the animal was monitored for at least 6 minutes for changes in cardiovascular efforts. Compounds were prepared in formulations identified to ensure optimal solubility. As such, vehicle controls were matched for the formulation of each compound tested. Dosing of the compound being screened was 0.1 and 0.3 mg/kg. The next dose was not administered until all cardiovascular and respiratory measures had returned to baseline levels. The positive control compounds used were N-[4,6-di-(n-propylamino)-[1,3,5]triazin-2-yl]-N,O-dimethyl-hydroxylamine or N-[2,6-di-(n-propylamino)-[1,3]pyrimidin-4-yl]-N,O-dimethyl-hydroxylamine (both administered at the end of each screening experiment (0.3 mg/kg dose) to validate the experiment and also to serve as a measure with which the compound being screened could be compared.
Data were analyzed by collecting cardiovascular and respiratory data in 30 second averages (BINs). Data were plotted 2 minutes before challenge and then 6 minutes after challenge.

Structure (SMILES): CCCN(C)c1nc(N)c2nc(N(C)C)nc(NC)c2n1.Cl [Compound 56a, N^2,N^2,N^4,N^6-Tetramethyl-N^6-n-propyl-pyrimido[5,4-d]pyrimidine-2,4,6,8-tetraamine hydrochloride]
- AUC MV Inc (2 min) (ratio vs. std*): 0.79 ratio vs. std

Structure (SMILES): C=CCN(CC=C)c1nc(NC)c2nc(NCCC)nc(NC)c2n1 [Compound 58a, N^2,N^2-Diallyl-N^4,N^8-dimethyl-N^6-n-propyl-pyrimido[5,4-d]pyrimidine-2,4,6,8-tetraamine]
- AUC MV Inc (2 min) (ratio vs. std*): 0.18 ratio vs. std

Structure (SMILES): CCCNc1nc(NC)c2nc(NCCOC(C)C)nc(NC)c2n1 [Compound 62a, N^2-(2-Isopropoxy-ethyl)-N^4,N^8-dimethyl-N^6-n-propyl-pyrimido[5,4-d]pyrimidine-2,4,6,8-tetraamine]
- AUC MV Inc (2 min) (ratio vs. std*): 0.55 ratio vs. std

Structure (SMILES): CCCNc1nc(NC)c2nc(N(C)CCN(C)C)nc(NC)c2n1 [Compound 64a, 2-[N-(2-Dimethylamino-ethyl)-N-methyl]amino-N^4,N^8-dimethyl-N^6-n-propyl-pyrimido[5,4-d]pyrimidine-4,6,8-triamine]
- AUC MV Inc (2 min) (ratio vs. std*): 0.01 ratio vs. std
- VE Peak (% Inc.): 9 % Inc.

Structure (SMILES): CCCNc1nc(NC)c2nc(N(CCO)CCO)nc(NC)c2n1.Cl [Compound 66a, 2-[(4,8-Bis-methylamino-6-n-propylamino-pyrimido[5,4-d]pyrimidin-2-yl)-(2-hydroxy-ethyl)-amino]-ethanol hydrochloride]
- AUC MV Inc (2 min) (ratio vs. std*): 0.14 ratio vs. std

Structure (SMILES): CCCNc1nc(NC)c2nc(N(CCOC)CCOC)nc(NC)c2n1 [Compound 68a, N^2,N^2-Bis-(2-methoxyethyl)-N^4,N^8-dimethyl-N^6-n-propyl-pyrimido[5,4-d]pyrimidine-2,4,6,8-tetraamine]
- AUC MV Inc (2 min) (ratio vs. std*): 0.00 ratio vs. std

Structure (SMILES): CCCNc1nc(NC)c2nc(N3CCS(=O)(=O)CC3)nc(NC)c2n1.Cl [Compound 75a, N^2-6-n-Propylamino-N^4,N^8-dimethyl-2-(1,1-dioxo-thiomorpholin-4-yl)-pyrimido-[5,4-d]pyrimidine-2,4,8-triamine hydrochloride]
- AUC MV Inc (2 min) (ratio vs. std*): 0.02 ratio vs. std
- VE Peak (% Inc.): 2 % Inc.

Structure (SMILES): CCCNc1nc(NC)c2nc(N3CCC(F)(F)CC3)nc(NC)c2n1 [Compound 77a, N^2-n-Propyl-N^4,N^8-dimethyl-6-(4,4-difluoro-piperidin-1-yl)-pyrimido[5,4-d]pyrimidine-2,4,8-triamine hydrochloride]
- AUC MV Inc (2 min) (ratio vs. std*): 0.55 ratio vs. std

Structure (SMILES): CNc1nc(NCC(C)C)nc2c(NC)nc(NCC(C)C)nc12.Cl [Compound 87a, N^2,N^6-Diisobutyl-N^4,N^8-dimethyl-pyrimido[5,4-d]pyrimidine-2,4,6,8-tetraamine hydrochloride]
- AUC MV Inc (2 min) (ratio vs. std*): 0.18 ratio vs. std

Structure (SMILES): C=CCNc1nc(NC)c2nc(NCC=C)nc(NC)c2n1.Cl [Compound 89a, N^2,N^6-Diallyl-N^4,N^8-dimethyl-pyrimido[5,4-d]pyrimidine-2,4,6,8-tetraamine hydrochloride]
- AUC MV Inc (2 min) (ratio vs. std*): 0.92 ratio vs. std

Structure (SMILES): CCCNc1nc(NC)c2nc(OCCC)nc(NC)c2n1 [Compound 95a, N^4,N^8-Dimethyl-6-propoxy-N^2-n-propyl-pyrimido[5,4-d]pyrimidine-2,4,8-triamine]
- AUC MV Inc (2 min) (ratio vs. std*): 0.36 ratio vs. std

Structure (SMILES): CCCNc1nc(NC)c2nc(SCCC)nc(NC)c2n1 [Compound 97a, N^4,N^8-Dimethyl-N^2-n-propyl-6-propylsulfanyl-pyrimido[5,4-d]pyrimidine-2,4,8-triamine]
- AUC MV Inc (2 min) (ratio vs. std*): 0.26 ratio vs. std

Structure (SMILES): CCCNc1nc(NC)c2nc(OCc3ccccc3)nc(NC)c2n1 [Compound 99a, 6-Benzyloxy-N^4,N^8-Dimethyl-N^2-n-propyl-pyrimido[5,4-d]pyrimidine-2,4,8-triamine]
- AUC MV Inc (2 min) (ratio vs. std*): 0.19 ratio vs. std

Structure (SMILES): CCCNc1nc(NC)c2nc(O)nc(NC)c2n1 [Compound 101, 4,8-Bis-methylamino-6-propylamino-pyrimido[5,4-d]pyrimidin-2-ol]
- AUC MV Inc (2 min) (ratio vs. std*): 0.00 ratio vs. std

Structure (SMILES): CCCNc1nc(NC)c2nc(C#N)nc(NC)c2n1 [Compound 103a, 4,8-Bis-methylamino-6-n-propylamino-pyrimido[5,4-d]pyrimidine-2-carbonitrile]
- AUC MV Inc (2 min) (ratio vs. std*): 0.00 ratio vs. std

Structure (SMILES): CCCNc1nc(NC)c2nc(CN)nc(NC)c2n1 [Compound 105a, N^4,N^8-Dimethyl-N^2-n-propyl-6-(aminomethyl)-pyrimido[5,4-d]pyrimidine-2,4,8-triamine]
- AUC MV Inc (2 min) (ratio vs. std*): 0.00 ratio vs. std

Structure (SMILES): CCCNc1nc(NC)c2nc(C(N)=O)nc(NC)c2n1 [Compound 107a, 6-Carbamoyl-N^4,N^8-dimethyl-N^2-n-propyl-pyrimido[5,4-d]pyrimidine-2,4,8-triamine]
- AUC MV Inc (2 min) (ratio vs. std*): 0.00 ratio vs. std

Structure (SMILES): CCCN=C(N)c1nc(NC)c2nc(NCCC)nc(NC)c2n1 [Compound 110a, N-(n-Propyl)-[4,8-Bis-methylamino-6-n-propylamino-pyrimido[5,4-d]pyrimidin-2-yl]-amidine]
- AUC MV Inc (2 min) (ratio vs. std*): 0.00 ratio vs. std
- VE Peak (% Inc.): 0 % Inc.

Structure (SMILES): CCCNc1nc(NC)c2ncnc(NC)c2n1 [Compound 116a, N^4,N^8-Dimethyl-N^2-n-propyl-pyrimido[5,4-d]pyrimidine-2,4,8-triamine]
- AUC MV Inc (2 min) (ratio vs. std*): 0.00 ratio vs. std

Structure (SMILES): CCCNc1nc(NC)nc2c(NCCC)nc(C#N)nc12 [Compound 122a, 6-Methylamino-4,8-bis-n-propylamino-pyrimido[5,4-d]pyrimidine-2-carbonitrile]
- AUC MV Inc (2 min) (ratio vs. std*): 0.00 ratio vs. std

Structure (SMILES): CCNc1nc(NCC)c2nc(NCC)nc(NCC)c2n1.Cl [Compound 125a, N^2,N^4,N^6,N^8-Tetraethyl-pyrimido[5,4-d]pyrimidine-2,4,6,8-tetraamine hydrochloride]
- AUC MV Inc (2 min) (ratio vs. std*): 0.80 ratio vs. std

Structure (SMILES): CCCNc1nc(NCC)c2nc(NCCC)nc(NCC)c2n1 [Compound 127a, N^4,N^8-Diethyl-N^2,N^6-di-n-propyl-pyrimido[5,4-d]pyrimidine-2,4,6,8-tetraamine]
- AUC MV Inc (2 min) (ratio vs. std*): 0.86 ratio vs. std

Structure (SMILES): CCNc1nc(NCC2CC2)nc2c(NCC)nc(NCC3CC3)nc12 [Compound 129a, N^2,N^6-Bis-cyclopropylmethyl-N^4,N^8-diethyl-pyrimido[5,4-d]pyrimidine-2,4,6,8-tetraamine]
- AUC MV Inc (2 min) (ratio vs. std*): 0.25 ratio vs. std

Structure (SMILES): CCNc1nc(NCC2CC2)c2nc(N(CC)CC)nc(NCC3CC3)c2n1.Cl [Compound 135a, N^2,N^2,N^6-Triethyl-N^4,N^8-bis-cyclopropylmethyl-pyrimido[5,4-d]pyrimidine-2,4,6,8-tetraamine hydrochloride]
- AUC MV Inc (2 min) (ratio vs. std*): 0.00 ratio vs. std

Structure (SMILES): CCCNc1nc(N(C)C)nc2c(NCCC)nc(N(C)C)nc12 [Compound 142a, N^2,N^2,N^6,N^6-Tetramethyl-N^4,N^8-di-n-propyl-pyrimido[5,4-d]pyrimidine-2,4,6,8-tetraamine]
- AUC MV Inc (2 min) (ratio vs. std*): 0.05 ratio vs. std

Structure (SMILES): C=CCNc1nc(NCC=C)c2nc(N3CCN(Cc4ccc(F)cc4)CC3)nc(NCC=C)c2n1.Cl.Cl [Compound 148a, N^2,N^4,N^8-Triallyl-6-[4-(4-fluorobenzyl)-piperazin-1-yl]-pyrimido[5,4-d]pyrimidine-2,4,8-triamine dihydrochloride]
- AUC MV Inc (2 min) (ratio vs. std*): 0.00 ratio vs. std

Structure (SMILES): C=CCNc1nc(NCC=C)c2nc(N3CCN(C(c4ccc(F)cc4)c4ccc(F)cc4)CC3)nc(NCC=C)c2n1 [Compound 150a, N^2,N^4,N^8-Triallyl-6-{4-[bis-(4-fluorophenyl)-methyl]-piperazin-1-yl}-pyrimido[5,4-d]pyrimidine-2,4,8-triamine]
- AUC MV Inc (2 min) (ratio vs. std*): 0.00 ratio vs. std

Structure (SMILES): CCCNc1nc(N(CC)CC)nc2c(NCCC)nc(NCC)nc12 [Compound 152a, N^2,N^2,N^6-Triethyl-N^4,N^8-di-n-propyl-pyrimido[5,4-d]pyrimidine-2,4,6,8-tetraamine]
- AUC MV Inc (2 min) (ratio vs. std*): 0.00 ratio vs. std

Structure (SMILES): CCCNc1nc(NC)c2nc(NCC(=O)O)nc(NC)c2n1 [Compound 154, (4,8-bis-methylamino-6-n-propylamino-pyrimido[5,4-d]pyrimidin-2-ylamino)-acetic acid]
- AUC MV Inc (2 min) (ratio vs. std*): 0.00 ratio vs. std
